System: standardized full-thickness bone defect (diameter: about 9 mm) in the calvarium
Assay: Test Example 1: rat calvarium bone defect, OCP/Col or β-TCP/Col implant + teriparatide subcutaneous injection
Format: in vivo, Male Wistar rats
Text: Male Wistar rats (12 weeks old) were each intraperitoneally anesthetized, and a skin incision and a periosteal incision were made in the calvarium part to expose the calvarium. A standardized full-thickness bone defect (diameter: about 9 mm), for which spontaneous recovery could not be expected, was created. Then, one disc-shaped OCP/Col produced in Production Example 2 or one disc-shaped β-TCP/Col produced in Production Example 3 was implanted therein. As the control, rats in which only a bone defect was created, and no sample was implanted (untreated group) were prepared. After the sample was implanted, the periosteum and skin were sutured, and the surgery was completed. […] In the rats of the teriparatide subcutaneous injection group, 10 μg/kg of the teriparatide prepared in Production Example 5 was subcutaneously injected immediately after surgery and every day thereafter. Subcutaneous injection was performed in such a manner that the thawed teriparatide solution was sucked by a 1-mL syringe (27G injection needle), the back skin was sterilized with a dilute Hibitane solution, and then a considerable amount of teriparatide solution was injected subcutaneously in the back. The observation period after surgery was 8 weeks for each group, and 5 rats were used in each period.
Four weeks and eight weeks after surgery, tomography was carried out on the rats in the living state using an X-ray CT scanner for experimental animals (Latheta LCT-200, produced by Hitachi Aloka Medical, Ltd.) at a low X-ray tube voltage, and the state of new bone formation in the bone defect site was carefully examined. Similarly, after CT photography 8 weeks after surgery, the rats were euthanized under anesthesia with an excess amount of pentobarbital. The calvarium and surrounding tissue were taken, and immersed and fixed in 0.1 M phosphate-buffered 4% paraformaldehyde (pH 7.4). The extracted samples were photographed (20 kV, 5 mA) with a soft X-ray camera (CMBW-2, produced by Softex Co., Ltd.), and then decalcified with 10% EDTA to prepare paraffin samples. Then, tissue sections (thickness: 6 μm) cut in the frontal plane were prepared, and a histological search was performed by hematoxylin-eosin staining. Further, using the multiple tissue sections corresponding to the center of the defect of each sample, the ratio of new bone (n-Bone %) in the created defect was examined by histological quantification. Variance analysis, etc., were conducted using the average value and standard deviation of n-Bone % in each group, and a significance test was conducted. The significance level was set at 5%.

[1] = 8 weeks after surgery, hematoxylin-eosin, PTH(+) = teriparatide 10 μg/kg s.c. every day, PTH(−) = none

SMILES: CC[C@H](C)[C@H](NC(=O)[C@H](CCC(=O)O)NC(=O)[C@H](CO)NC(=O)[C@@H](NC(=O)[C@@H](N)CO)C(C)C)C(=O)N[C@@H](CCC(N)=O)C(=O)N[C@@H](CC(C)C)C(=O)N[C@@H](CCSC)C(=O)N[C@@H](Cc1cnc[nH]1)C(=O)N[C@@H](CC(N)=O)C(=O)N[C@@H](CC(C)C)C(=O)NCC(=O)N[C@@H](CCCCN)C(=O)N[C@@H](Cc1cnc[nH]1)C(=O)N[C@@H](CC(C)C)C(=O)N[C@@H](CC(N)=O)C(=O)N[C@@H](CO)C(=O)N[C@@H](CCSC)C(=O)N[C@@H](CCC(=O)O)C(=O)N[C@@H](CCCN=C(N)N)C(=O)N[C@H](C(=O)N[C@@H](CCC(=O)O)C(=O)N[C@@H](Cc1c[nH]c2ccccc12)C(=O)N[C@@H](CC(C)C)C(=O)N[C@@H](CCCN=C(N)N)C(=O)N[C@@H](CCCCN)C(=O)N[C@@H](CCCCN)C(=O)N[C@@H](CC(C)C)C(=O)N[C@@H](CCC(N)=O)C(=O)N[C@@H](CC(=O)O)C(=O)N[C@H](C(=O)N[C@@H](Cc1cnc[nH]1)C(=O)N[C@@H](CC(N)=O)C(=O)N[C@@H](Cc1ccccc1)C(=O)O)C(C)C)C(C)C [teriparatide]
- X-ray photographs of isolated bone defect sites (FIG. 1) (8 weeks after surgery, PTH(+) = teriparatide 10 μg/kg s.c. every day): radiopaque images in the defects were equally scarce
- stained pathological specimens, high-magnification images (FIG. 4) [1]: thin new bone extended from the defect margins
- stained pathological specimens, low-magnification (×1.25) images (FIG. 3) [1]: thin bone tissue extending from the defect margins (▾) and connective tissue surrounding the bone tissue
- ratio of new bone (n-Bone %) in the defect (8 weeks after surgery, histological quantification (FIG. 5), PTH(+) = teriparatide 10 μg/kg subcutaneously every day, PTH(−) = no injection, average ± standard deviation): 31.1±10.2%
- X-ray photographs (cross sections) of calvarium shot with the rats alive (FIG. 2) (PTH(+) = teriparatide 10 μg/kg s.c. every day): radiopaque images extending from the defect margins (∇) were observed; however, their thickness was less than that of the existing bone
- new bone formation (conclusion from FIGS. 1 to 5) (teriparatide 10 μg/kg s.c. every day, 8 weeks): new bone formation was not observed
